SMILES strings stand for the structures.

In general, Ki refers to a measure of affinity in units of concentration, obtained from inhibition or displacement.

One experiment addresses T1, MMP-9 (Homo sapiens, UniProt P14780).
T1 construct: made in house; host or cells: MMP-9-transfected HT1080 cells (spent media)
In words: In vitro MMP inhibition, Ki determination (fluorogenic substrate II). Format: biochemical. The conditions noted are these: value not in parenthesis. Summed up: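 HT1080-derived MMP-9, activated with APMA, trypsin or MMP-3, incubated 1 hr at room temperature with inhibitor and 4 μM fluorogenic substrate II (at or below Km) in pH 7.5 Tris/NaCl/CaCl2 buffer; ex 330/em 420 nm. Ki from Morrison-equation regression, without substrate correction.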

For the next experiment, the target named is T2, MMP-2 (Homo sapiens, UniProt P08253).
T2 construct: made in house; host or cells: MMP-2-transfected p2AHT2 cells
T2 sequence (P08253 110-660): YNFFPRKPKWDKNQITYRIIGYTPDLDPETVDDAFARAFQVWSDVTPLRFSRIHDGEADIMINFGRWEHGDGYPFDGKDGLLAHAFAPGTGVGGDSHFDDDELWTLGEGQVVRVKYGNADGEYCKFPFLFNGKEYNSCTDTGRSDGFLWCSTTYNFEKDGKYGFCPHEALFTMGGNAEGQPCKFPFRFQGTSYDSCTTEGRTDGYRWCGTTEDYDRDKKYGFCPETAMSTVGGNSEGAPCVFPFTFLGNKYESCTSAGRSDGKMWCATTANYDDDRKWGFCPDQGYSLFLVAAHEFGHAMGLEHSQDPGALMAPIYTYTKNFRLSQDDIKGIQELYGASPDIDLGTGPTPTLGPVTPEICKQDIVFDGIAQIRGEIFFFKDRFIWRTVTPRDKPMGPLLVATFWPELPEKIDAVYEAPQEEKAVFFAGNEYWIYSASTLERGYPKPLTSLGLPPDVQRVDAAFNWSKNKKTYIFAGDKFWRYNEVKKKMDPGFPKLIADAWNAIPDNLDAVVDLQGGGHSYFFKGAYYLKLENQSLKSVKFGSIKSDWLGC
Described as above. The class given is biochemical. The note with it: value not in parenthesis; read-out: MMP-2 Ki.

T1 sequence (P14780 107-707 limits assumed): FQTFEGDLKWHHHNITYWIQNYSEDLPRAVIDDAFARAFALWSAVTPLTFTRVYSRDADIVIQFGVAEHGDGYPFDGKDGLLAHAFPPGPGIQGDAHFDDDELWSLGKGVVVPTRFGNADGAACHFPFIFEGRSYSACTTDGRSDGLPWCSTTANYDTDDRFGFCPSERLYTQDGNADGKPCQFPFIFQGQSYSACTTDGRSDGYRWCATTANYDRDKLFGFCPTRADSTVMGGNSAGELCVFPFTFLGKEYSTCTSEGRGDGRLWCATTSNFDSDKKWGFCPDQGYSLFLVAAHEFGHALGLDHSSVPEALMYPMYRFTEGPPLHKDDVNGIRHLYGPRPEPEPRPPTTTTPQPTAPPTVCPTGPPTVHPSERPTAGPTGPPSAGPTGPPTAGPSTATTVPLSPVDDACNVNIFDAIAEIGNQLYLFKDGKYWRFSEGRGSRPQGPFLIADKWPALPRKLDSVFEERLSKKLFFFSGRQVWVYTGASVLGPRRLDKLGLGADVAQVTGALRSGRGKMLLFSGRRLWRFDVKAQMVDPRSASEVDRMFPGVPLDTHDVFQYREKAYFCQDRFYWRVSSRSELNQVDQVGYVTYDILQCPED

For `CCCCc1ccc(N2CCN(S(=O)(=O)C3(C(=O)NO)CCN(c4ccc(C)cc4)CC3)CC2)cc1` [Example 146], the figures for the Ki at MMP-9 and at MMP-2 were 2.29 nM and 6.41 nM, respectively.

For `CCCCCc1ccc(N2CCN(S(=O)(=O)C3(C(=O)NO)CCN(c4ccc(C)cc4)CC3)CC2)cc1` [Example 147], the inhibitory constant (Ki) at MMP-9 was 13.7 nM; on MMP-2, 20.5 nM.

With `COCCN1CCC(C(=O)NO)(S(=O)(=O)N2CCN(c3ccc(OCCC(C)C)cc3)CC2)CC1` [Example 148], the Ki at MMP-9 was determined as 2.35 nM; on MMP-2 it was 1.19 nM.

Turning to `CCCCOc1ccc(N2CCN(S(=O)(=O)C3(C(=O)NO)CCN(c4ccccn4)CC3)CC2)cc1` [Example 149], the Ki on MMP-9 came out at 5.87 nM; at MMP-2, 1.89 nM.

Consider `CCCCOc1ccc(N2CCN(S(=O)(=O)C3(C(=O)NO)CCN(c4nc5ccccc5o4)CC3)CC2)cc1` [Example 150], for which the Ki at MMP-9 came to 31.4 nM; at MMP-2, 4.25 nM.

With `O=C(NO)C1(S(=O)(=O)N2CCN(c3ccc(SC(F)(F)F)cc3)CC2)CCN(Cc2ccccc2)CC1` [Example 152], the Ki on MMP-9 was found to be 90 nM; on MMP-2, 0.871 nM.

Take `O=C(NO)C1(S(=O)(=O)N2CCN(c3ccc(OCCCC(F)(F)F)cc3)CC2)CCN(C2CC2)CC1` [Example 153]: the Ki on MMP-9 stood at 6.1 nM; on MMP-2, 0.502 nM.

For `CCCCOc1ccc(N2CCN(S(=O)(=O)C3(C(=O)NO)CCN(c4cccnc4)CC3)CC2)cc1` [Example 154], the Ki worked out at 2.15 nM on MMP-9 and 1.07 nM on MMP-2.

Regarding `CCCCOc1ccc(N2CCN(S(=O)(=O)C3(C(=O)NO)CCN(c4ncc(CC)cn4)CC3)CC2)cc1` [Example 155], the Ki amounted to 9.86 nM at MMP-9 and 1.83 nM at MMP-2.

(Values after patent publication US20050209278A1, “Piperidinyl- and piperazinyl-sulfonylmethyl hydroxamic acids and their use as protease inhibitors” (priority 2002, published 2005).)
